Legend:
Format in all cases: in vivo
[1] = tested on: barnyardgrass (Echinochloa crus-galli); experiment: Test A preemergence, barnyardgrass; details: 0 to 100 scale (0 no effect, 100 complete control)
Procedure, shortened: (§1)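 Each compound, in a non-phytotoxic solvent mixture with surfactant, is applied to soil at planting and, concurrently, to young one- to two-leaf plants. After approximately ten greenhouse days, visual response is rated 0 (no effect) to 100 (complete control) against untreated controls.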

[2] = tested on: large crabgrass (Digitaria sanguinalis); experiment: Test A preemergence, large crabgrass; details: 0 to 100 scale (0 no effect, 100 complete control)
Procedure, shortened: as §1

[3] = tested on: giant foxtail (Setaria faberi); experiment: Test A preemergence, giant foxtail; details: 0 to 100 scale (0 no effect, 100 complete control)
Procedure, shortened: as §1

[4] = tested on: morningglory (Ipomoea spp.); experiment: Test A preemergence, morningglory; details: 0 to 100 scale (0 no effect, 100 complete control)
Procedure, shortened: as §1

[5] = tested on: barnyardgrass (Echinochloa crus-galli); experiment: Test A postemergence, barnyardgrass; details: 0 to 100 scale (0 no effect, 100 complete control)
Procedure, shortened: as §1

[6] = tested on: pigweed (Amaranthus retroflexus); experiment: Test A postemergence, pigweed; details: 0 to 100 scale (0 no effect, 100 complete control)
Procedure, shortened: as §1

[7] = tested on: velvetleaf (Abutilon theophrasti); experiment: Test A postemergence, velvetleaf; details: 0 to 100 scale (0 no effect, 100 complete control)
Procedure, shortened: as §1

[8] = tested on: downy bromegrass (Bromus tectorum); experiment: Test B preemergence, downy bromegrass; details: scale 0 to 100
Description: (§2) Seeds of plant species selected from blackgrass (Alopecurus myosuroides), downy bromegrass (Bromus tectorum), green foxtail (Setaria viridis), Italian ryegrass (Lolium multiflorum), wheat (Triticum aestivum), wild oat (Avena fatua), catchweed bedstraw (Galium aparine), bermudagrass (Cynodon dactylon), Surinam grass (Brachiaria decumbens), cocklebur (Xanthium strumarium), corn (Zea mays), large crabgrass (Digitaria sanguinalis), woolly cupgrass (Eriochloa villosa), giant foxtail (Setaria faberii), goosegrass (Eleusine indica), johnsongrass (Sorghum halepense), kochia (Kochia scoparia), lambsquarters (Chenopodium album), morningglory (Ipomoea coccinea), nightshade (eastern black nightshade, Solanum ptycanthum), yellow nutsedge (Cyperus esculentus), pigweed (Amaranthus retroflexus), ragweed (common ragweed, Ambrosia elatior), soybean (Glycine max), sunflower (common oilseed sunflower, Helianthus annuus), Russian thistle (Salsola kali), and velvetleaf (Abutilon theophrasti) were planted into a blend of loam soil and sand and treated preemergence with test compounds formulated in a non-phytotoxic solvent mixture which included a surfactant. Treated plants and controls were maintained in a greenhouse for 13 to 15 days, after which time all species were compared to controls and visually evaluated. Plant response ratings, summarized in Table B, are based on a scale of 0 to 100 where 0 is no effect and 100 is complete control. A dash (-) response means no test result.

[9] = tested on: green foxtail (Setaria viridis); experiment: Test B preemergence, green foxtail; details: scale 0 to 100
Description: as §2

[10] = tested on: wild oat (Avena fatua); experiment: Test B preemergence, wild oat; details: scale 0 to 100
Description: as §2

[11] = tested on: bermudagrass (Cynodon dactylon); experiment: Test B preemergence, bermudagrass; details: scale 0 to 100
Description: as §2

[12] = tested on: Surinam grass (Brachiaria decumbens); experiment: Test B preemergence, Surinam grass; details: Preemergence, scale 0 to 100
Procedure, shortened: (§3)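 Untreated controls served as reference for visual evaluation at 13 to 15 days. Seeds in a sand–loam blend had been treated preemergence with surfactant-containing non-phytotoxic formulation; scale 0 = no effect, 100 = complete control; dash indicates no result.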

[13] = tested on: large crabgrass (Digitaria sanguinalis); experiment: Test B preemergence, large crabgrass; details: scale 0 to 100
Description: as §2

[14] = tested on: woolly cupgrass (Eriochloa villosa); experiment: Test B preemergence, woolly cupgrass; details: scale 0 to 100
Description: as §2

[15] = tested on: johnsongrass (Sorghum halepense); experiment: Test B preemergence, johnsongrass; details: scale 0 to 100
Description: as §2

[16] = tested on: morningglory (Ipomoea coccinea); experiment: Test B preemergence, morningglory; details: scale 0 to 100
Description: as §2

[17] = tested on: ragweed (common ragweed, Ambrosia elatior); experiment: Test B preemergence, ragweed; details: scale 0 to 100
Description: as §2

[18] = tested on: soybean (Glycine max); experiment: Test B preemergence, soybean; details: Preemergence, scale 0 to 100
Procedure, shortened: as §3

[19] = tested on: ducksalad (Heteranthera limosa); experiment: Test B flooded paddy test, ducksalad; details: Flood, scale 0 to 100
Procedure, shortened: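 Step one: raise plants to 2 leaves. Step two: flood pots 3 cm over the soil and apply compound into the water, keeping this depth. Step three: after 13–15 greenhouse days, score visually versus controls, 0–100, where 100 means complete control.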

## CC1(C)CC(S(=O)(=O)Cc2c(C(F)(F)Cl)nc3n(c2=O)CCC3)=NO1 [Compound 18]
[1]; 125 g ai/ha
  Plant response rating, Barnyardgrass: 70
[1]; 500 g ai/ha
  Plant response rating, Barnyardgrass: 100
[2]; 125 g ai/ha
  Plant response rating, Crabgrass, Large: 90
[2]; 500 g ai/ha
  Plant response rating, Crabgrass, Large: 100
[3]; 125 g ai/ha
  Plant response rating, Foxtail, Giant: 90
[3]; 500 g ai/ha
  Plant response rating, Foxtail, Giant: 100
[4]; 125 g ai/ha
  Plant response rating, Morningglory: 0
[4]; 500 g ai/ha
  Plant response rating, Morningglory: 50
[5]; 125 g ai/ha
  Plant response rating, Barnyardgrass: 80
[5]; 500 g ai/ha
  Plant response rating, Barnyardgrass: 80
[6]; 125 g ai/ha
  Plant response rating, Pigweed: 30
[6]; 500 g ai/ha
  Plant response rating, Pigweed: 40
[7]; 125 g ai/ha
  Plant response rating, Velvetleaf: 30
[7]; 500 g ai/ha
  Plant response rating, Velvetleaf: 60
[8]; 16 g ai/ha
  Plant response rating, Bromegrass, Downy: 0
[8]; 31 g ai/ha
  Plant response rating, Bromegrass, Downy: 0
[8]; 62 g ai/ha
  Plant response rating, Bromegrass, Downy: 0
[8]; 125 g ai/ha
  Plant response rating, Bromegrass, Downy: 20
[9]; 16 g ai/ha
  Plant response rating, Foxtail, Green: 30
[9]; 31 g ai/ha
  Plant response rating, Foxtail, Green: 80
[9]; 62 g ai/ha
  Plant response rating, Foxtail, Green: 98
[9]; 125 g ai/ha
  Plant response rating, Foxtail, Green: 98
[10]; 16 g ai/ha
  Plant response rating, Oat, Wild: 0
[10]; 31 g ai/ha
  Plant response rating, Oat, Wild: 0
[10]; 62 g ai/ha
  Plant response rating, Oat, Wild: 0
[10]; 125 g ai/ha
  Plant response rating, Oat, Wild: 45
[11]; 16 g ai/ha
  Plant response rating, Bermudagrass: 0
[11]; 31 g ai/ha
  Plant response rating, Bermudagrass: 98
[11]; 62 g ai/ha
  Plant response rating, Bermudagrass: 100
[11]; 125 g ai/ha
  Plant response rating, Bermudagrass: 100
[12]; 16 g ai/ha
  Plant response rating, Surinam Grass: 0
[12]; 31 g ai/ha
  Plant response rating, Surinam Grass: 40
[12]; 62 g ai/ha
  Plant response rating, Surinam Grass: 75
[12]; 125 g ai/ha
  Plant response rating, Surinam Grass: 85
[13]; 16 g ai/ha
  Plant response rating, Crabgrass, Large: 0
[13]; 31 g ai/ha
  Plant response rating, Crabgrass, Large: 70
[13]; 62 g ai/ha
  Plant response rating, Crabgrass, Large: 90
[13]; 125 g ai/ha
  Plant response rating, Crabgrass, Large: 100
[14]; 16 g ai/ha
  Plant response rating, Cupgrass, Woolly: 0
[14]; 31 g ai/ha
  Plant response rating, Cupgrass, Woolly: 20
[14]; 62 g ai/ha
  Plant response rating, Cupgrass, Woolly: 65
[14]; 125 g ai/ha
  Plant response rating, Cupgrass, Woolly: 95
[15]; 16 g ai/ha
  Plant response rating, Johnsongrass: 15
[15]; 31 g ai/ha
  Plant response rating, Johnsongrass: 20
[15]; 62 g ai/ha
  Plant response rating, Johnsongrass: 60
[15]; 125 g ai/ha
  Plant response rating, Johnsongrass: 85
[16]; 16 g ai/ha
  Plant response rating, Morningglory: 0
[16]; 31 g ai/ha
  Plant response rating, Morningglory: 0
[16]; 62 g ai/ha
  Plant response rating, Morningglory: 0
[16]; 125 g ai/ha
  Plant response rating, Morningglory: 45
[17]; 16 g ai/ha
  Plant response rating, Ragweed: 0
[17]; 31 g ai/ha
  Plant response rating, Ragweed: 0
[17]; 62 g ai/ha
  Plant response rating, Ragweed: 0
[17]; 125 g ai/ha
  Plant response rating, Ragweed: 0
[18]; 16 g ai/ha
  Plant response rating, Soybean: 0
[18]; 31 g ai/ha
  Plant response rating, Soybean: 0
[18]; 62 g ai/ha
  Plant response rating, Soybean: 0
[18]; 125 g ai/ha
  Plant response rating, Soybean: 0
[19]; 31 g ai/ha
  Plant response rating, Ducksalad: 0
[19]; 62 g ai/ha
  Plant response rating, Ducksalad: 0
[19]; 125 g ai/ha
  Plant response rating, Ducksalad: 0
[19]; 250 g ai/ha
  Plant response rating, Ducksalad: 0

## CC1(C)CC(S(=O)(=O)Cc2c(C(F)(F)C(F)(F)F)nc3n(c2=O)CCCC3)=NO1 [Compound 21]
[1]; 125 g ai/ha
  Plant response rating, Barnyardgrass: 90
[1]; 500 g ai/ha
  Plant response rating, Barnyardgrass: 100
[2]; 125 g ai/ha
  Plant response rating, Crabgrass, Large: 90
[2]; 500 g ai/ha
  Plant response rating, Crabgrass, Large: 100
[3]; 125 g ai/ha
  Plant response rating, Foxtail, Giant: 90
[3]; 500 g ai/ha
  Plant response rating, Foxtail, Giant: 100
[4]; 125 g ai/ha
  Plant response rating, Morningglory: 0
[4]; 500 g ai/ha
  Plant response rating, Morningglory: 50
[5]; 125 g ai/ha
  Plant response rating, Barnyardgrass: 70
[5]; 500 g ai/ha
  Plant response rating, Barnyardgrass: 90
[6]; 125 g ai/ha
  Plant response rating, Pigweed: 0
[6]; 500 g ai/ha
  Plant response rating, Pigweed: 10
[7]; 125 g ai/ha
  Plant response rating, Velvetleaf: 0
[7]; 500 g ai/ha
  Plant response rating, Velvetleaf: 10
[8]; 16 g ai/ha
  Plant response rating, Bromegrass, Downy: 0
[8]; 31 g ai/ha
  Plant response rating, Bromegrass, Downy: 0
[8]; 62 g ai/ha
  Plant response rating, Bromegrass, Downy: 0
[8]; 125 g ai/ha
  Plant response rating, Bromegrass, Downy: 60
[9]; 16 g ai/ha
  Plant response rating, Foxtail, Green: 0
[9]; 31 g ai/ha
  Plant response rating, Foxtail, Green: 45
[9]; 62 g ai/ha
  Plant response rating, Foxtail, Green: 100
[9]; 125 g ai/ha
  Plant response rating, Foxtail, Green: 100
[10]; 16 g ai/ha
  Plant response rating, Oat, Wild: 0
[10]; 31 g ai/ha
  Plant response rating, Oat, Wild: 30
[10]; 62 g ai/ha
  Plant response rating, Oat, Wild: 30
[10]; 125 g ai/ha
  Plant response rating, Oat, Wild: 40
[11]; 16 g ai/ha
  Plant response rating, Bermudagrass: 90
[11]; 31 g ai/ha
  Plant response rating, Bermudagrass: 100
[11]; 62 g ai/ha
  Plant response rating, Bermudagrass: 100
[11]; 125 g ai/ha
  Plant response rating, Bermudagrass: 100
[12]; 16 g ai/ha
  Plant response rating, Surinam Grass: 50
[12]; 31 g ai/ha
  Plant response rating, Surinam Grass: 50
[12]; 62 g ai/ha
  Plant response rating, Surinam Grass: 50
[12]; 125 g ai/ha
  Plant response rating, Surinam Grass: 100
[13]; 16 g ai/ha
  Plant response rating, Crabgrass, Large: 20
[13]; 31 g ai/ha
  Plant response rating, Crabgrass, Large: 95
[13]; 62 g ai/ha
  Plant response rating, Crabgrass, Large: 98
[13]; 125 g ai/ha
  Plant response rating, Crabgrass, Large: 100
[14]; 16 g ai/ha
  Plant response rating, Cupgrass, Woolly: 100
[14]; 31 g ai/ha
  Plant response rating, Cupgrass, Woolly: 100
[14]; 62 g ai/ha
  Plant response rating, Cupgrass, Woolly: 100
[14]; 125 g ai/ha
  Plant response rating, Cupgrass, Woolly: 100
[15]; 16 g ai/ha
  Plant response rating, Johnsongrass: 0
[15]; 31 g ai/ha
  Plant response rating, Johnsongrass: 30
[15]; 62 g ai/ha
  Plant response rating, Johnsongrass: 60
[15]; 125 g ai/ha
  Plant response rating, Johnsongrass: 98
[16]; 16 g ai/ha
  Plant response rating, Morningglory: 0
[16]; 31 g ai/ha
  Plant response rating, Morningglory: 10
[16]; 62 g ai/ha
  Plant response rating, Morningglory: 80
[16]; 125 g ai/ha
  Plant response rating, Morningglory: 100
[17]; 16 g ai/ha
  Plant response rating, Ragweed: 0
[17]; 31 g ai/ha
  Plant response rating, Ragweed: 0
[17]; 62 g ai/ha
  Plant response rating, Ragweed: 0
[17]; 125 g ai/ha
  Plant response rating, Ragweed: 10
[18]; 16 g ai/ha
  Plant response rating, Soybean: 0
[18]; 31 g ai/ha
  Plant response rating, Soybean: 0
[18]; 62 g ai/ha
  Plant response rating, Soybean: 0
[18]; 125 g ai/ha
  Plant response rating, Soybean: 0
[19]; 62 g ai/ha
  Plant response rating, Ducksalad: 0
[19]; 250 g ai/ha
  Plant response rating, Ducksalad: 0

Source: patent publication US20100099561A1, “HETEROBICYCLIC ALKYLTHIO-BRIDGED ISOXAZOLINES” (E.I. DU PONT DE NEMOURS AND COMPANY, priority 2008, published 2010)
